Reference: US12606863B2, “Bioluminescent detection of DNA synthesis” (Promega Corporation, priority 2021, dated 2026)

Tests used:
Format in all cases: cell-based
A549 cells [1] = assay: Incorporation of modified nucleosides into newly synthesized DNA, detection with HT-LgBiT/HT-SmBiT (NANOBiT), Example 1; conditions: A549 500 cells/well, 10 uM, 4 hours, fixed, permeabilized, DNA denatured; HT-LgBiT and HT-SmBiT 50 nM
Method: A549 cells plated at 500 cells/well were cultured in medium containing PBI-7931 (FIG. 2A, top) or PBI-7960 (FIG. 2A, bottom) at 10 uM final concentration for 4 hours. Cells without modified nucleosides were used as control. After culturing, the media was removed, cells fixed, permeabilized, and DNA denatured using acid treatment. […] Following a one-hour incubation, NANOLUC substrate was added, and luminescence was measured (FIG. 2B).

A549 cells [2] = assay: Simultaneous incorporation of modified nucleosides, all probes added together, NanoBiT detection, Example 8; conditions: all probes added together at 5 or 12.5 uM each; A549 5,000 and 1,000 cells per well; compared to control cells
Method: (§1) Cells without modified nucleosides were used as a control (brown bars). Incorporation of modified nucleosides into DNA was determined by removing the media, fixing and permeabilizing the cells, denaturing DNA, and incubating with HaloTag-LgBiT (HT-LgBiT) and HaloTag-SmBiT (HT-SmBiT) diluted in PBS with 0.01% BSA at 50 nM final concentration. After 2 hours incubation, the reagents were removed, the samples were washed with PBS, NanoLuc substrate was added, and luminescence was measured (FIG. 4).
The experiment was conducted with A549 cells plated at 5,000 and 1,000 cells per well as described in Example 7.

A549 cells [3] = assay: Incorporation of modified chloroalkane nucleoside measured without DNA denaturation, Example 9; conditions: A549 5000 cells/well, 10 uM, 0.5 hours or 4 hours; HT-LgBiT and HT-SmBiT 25 nM
Method: A549 cells plated at 5000 cells/well were cultured in medium containing PBI-7960 at 10 uM final concentration for 0.5 hours (light blue bar) or 4 hours (dark blue bar). Cells without modified nucleosides were used as control (brown bar). Incorporation of modified nucleosides into DNA was determined by removing the media, fixing and permeabilizing the cells and incubating with HT-LgBiT and HT-SmBiT diluted in PBS with 0.01% BSA at 25 nM final concentration. After 1 hour incubation, the NanoLuc substrate was added, and luminescence was measured.

A549 cells [4] = assay: Incorporation of modified nucleosides into newly synthesized DNA, NanoBiT detection, Example 7; conditions: A549 5000 cells/well, 20 uM or 50 uM, 4.5 hours
Method: as §1, with “A549 cells plated at 5000 cells/well were cultured in medium containing PBI-9391, PBI-9392, or PBI-9393 at 20 uM (light blue bars) or 50 uM (dark blue bars) final concentration for 4.5 hours. Cells” for “Cells”

A549 cells [5] = assay: Inhibition of DNA replication measured by modified nucleoside incorporation and NANOBiT luminescence, Example 2; conditions: A549 2,000 cells/well, increasing doxorubicin for 2 hours, then PBI-7931 or -7960 at 10 uM for 4 hours
Method: A549 cells plated at 2,000 cells/well were treated with increasing concentrations of the DNA replication inhibitor doxorubicin for 2 hours in a tissue culture incubator. […] No compound was added to control cells. To measure the amount of newly synthesized DNA, HT-LgBiT and HT-SmBiT were added to the cells at 50 nM final concentration.

| SMILES | Luminescence following incorporation of haloalkyl-modified nucleosides into newly-synthesized DNA (FIG. 2B) (A549 cells [1]) | Light output after simultaneous incorporation into newly synthesized DNA (FIG. 5) (A549 cells [2]) | Incorporation detected without DNA denaturation (FIG. 6) (A549 cells [3]) | Incorporation into newly synthesized DNA detected via NanoBiT (FIG. 4) (A549 cells [4]) | Inhibition of DNA synthesis, detected by reduction in luminescence (FIG. 3) (A549 cells [5]) |
| --- | --- | --- | --- | --- | --- |
| O=C(NCCOCCOCCCCCCCl)OCC#Cc1cn([C@H]2CC(O)[C@@H](CO)O2)c(=O)[nH]c1=O (some centres unmarked) [PBI-7931] | Luminescence detected | – | – | – | – |
| O=C(NCC#Cc1cn([C@H]2C[C@H](O)[C@@H](CO)O2)c(=O)[nH]c1=O)c1ccc(C(=O)NCCOCCOCCCCCCCl)cc1 [PBI-7960, N1-(2-(2-((6-chlorohexyl)oxy)ethoxy)ethyl)-N4-(3-(1-((2R,4S,5R)-4-hydroxy-5-(hydroxymethyl)tetrahydrofuran-2-yl)-2,4-dioxo-1,2,3,4-tetrahydropyrimidin-5-yl)prop-2-yn-1-yl)terephthalamide] | Luminescence detected | increase in light output | detected without DNA denaturation | – | – |
| Nc1nc(=O)n([C@H]2C[C@H](O)[C@@H](CO)O2)cc1C#CCOC(=O)NCCOCCOCCCCCCCl [PBI-9391, 3-(4-amino-1-((2R,4S,5R)-4-hydroxy-5-(hydroxymethyl)tetrahydrofuran-2-yl)-2-oxo-1,2-dihydropyrimidin-5-yl)prop-2-yn-1-yl (2-(2-((6-chlorohexyl)oxy)ethoxy)ethyl)carbamate] | – | increase in light output | – | incorporated into newly synthesized DNA | – |
| Nc1nc(=O)c2c(C#CCOC(=O)NCCOCCOCCCCCCCl)cn([C@H]3C[C@H](O)[C@@H](CO)O3)c2[nH]1 [PBI-9392, 3-(2-amino-7-((2R,4S,5R)-4-hydroxy-5-(hydroxymethyl)tetrahydrofuran-2-yl)-4-oxo-4,7-dihydro-1H-pyrrolo[2,3-d]pyrimidin-5-yl)prop-2-yn-1-yl(2-(2-((6-chlorohexyl)oxy)ethoxy)ethyl)carbamate] | – | increase in light output | – | incorporated into newly synthesized DNA | – |
| Nc1ncnc2c1c(C#CCOC(=O)NCCOCCOCCCCCCCl)cn2[C@H]1C[C@H](O)[C@@H](CO)O1 [PBI-9393, 3-(4-amino-7-((2R,4S,5R)-4-hydroxy-5-(hydroxymethyl)tetrahydrofuran-2-yl)-7H-pyrrolo[2,3-d]pyrimidin-5-yl)prop-2-yn-1-yl(2-(2-((6-chlorohexyl)oxy)ethoxy)ethyl)carbamate] | – | increase in light output | – | incorporated into newly synthesized DNA | – |
| COc1cccc2c1C(=O)c1c(O)c3c(c(O)c1C2=O)C[C@@](O)(C(=O)CO)C[C@@H]3O[C@H]1C[C@H](N)[C@H](O)[C@H](C)O1 [doxorubicin] | – | – | – | – | Inhibition of DNA synthesis |
